Measured values from ChEMBL document CHEMBL1201862, “PubChem BioAssay data set” (2004).
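Growth conditions: 96-well plates. Treatment: test compound, 48 hours, 5 concentrations. Analysis: linear interpolation between bracketing concentrations; unreached endpoints set to highest concentration. Abbreviation: GI50, concentration required for 50% inhibition of growth.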 Activity calls are given as the source filed them. Cut-off read from the data, not from the text of the source: active = GI50 up to about 1.1 µM and inactive = higher.

How the values were obtained:
Experiment in all cases: inhibition of tumour cell growth, NCI panel, 48 h
[1] = tested on: T47D
[2] = tested on: LXFL 529
[3] = tested on: SNB-78
[4] = tested on: M19-MEL
[5] = tested on: HOP-18
[6] = tested on: KM-20L2
[7] = tested on: DMS-114
[8] = tested on: XF498
[9] = tested on: RXF 631

O=C(O)C(Cc1ccccc1)Cc1ccccc1
GI50 [1]: > 100 µM (inactive)

CC(=O)NCCCCN(CCCNC(C)=O)C(=O)OCc1ccccc1
GI50 [1]: > 100 µM (inactive)

O=S1(=O)CCN(c2ccccc2CC(c2c[nH]c3ccccc23)c2c[nH]c3ccccc23)CC1
GI50 [2]: 4.13 µM (inactive) | GI50 [3]: 30.1 µM (inactive) | GI50 [1]: 6.35 µM (inactive) | GI50 [4]: 5.74 µM (inactive) | GI50 [5]: 14.4 µM (inactive) | GI50 [6]: 8.85 µM (inactive) | GI50 [7]: 5.3 µM (inactive)

COc1ccc2cc3c4cc(OC)c(OC)cc4ccn3c2c1
GI50 [2]: > 100 µM (inactive) | GI50 [3]: > 100 µM (inactive) | GI50 [8]: > 100 µM (inactive) | GI50 [4]: > 100 µM (inactive) | GI50 [5]: > 100 µM (inactive) | GI50 [7]: > 100 µM (inactive)

CNC(=S)N/N=C1\C(=O)N(CN2CCOCC2)c2ccc([N+](=O)[O-])cc21
GI50 [1]: 18.9 µM (inactive)

COc1ccc2c(c1)CC1Cc3cc(OC)c(OC)cc3CN1CC2 (configuration not stated)
GI50 [1]: 23.9 µM (inactive)

O=P1(C(O)/C=C/c2ccccc2)N(Cc2ccccc2)[C@@H]2CCCC[C@H]2N1Cc1ccccc1 (some centres not stated)
GI50 [1]: 4.76 µM (inactive)

CCc1nc(N)nc(N)c1-c1ccc(Cl)c(Cl)c1 [ETOPRINE]
GI50 [1]: > 100 µM (inactive)

O=C1/C(=C/c2cccs2)N=C(c2ccccc2)N1C1Nc2cc3c(cc2S1)NC(N1C(=O)/C(=C/c2cccs2)N=C1c1ccccc1)S3 (configuration not stated)
GI50 [1]: 51.8 µM (inactive)

CC1(C)OC(=O)[C@@](C)([C@H](O)c2ccccc2)O1
GI50 [2]: > 100 µM (inactive) | GI50 [3]: > 100 µM (inactive) | GI50 [8]: > 100 µM (inactive) | GI50 [9]: 79.4 µM (inactive) | GI50 [4]: > 100 µM (inactive) | GI50 [6]: > 100 µM (inactive) | GI50 [7]: 56.8 µM (inactive)

Cc1n[nH]c(C(F)(F)F)c1/N=N/N(C)C
GI50 [1]: 2.23 µM (inactive)

Cc1c(C)c2ccc3oc4ccccc4c3c2oc1=O
GI50 [2]: > 100 µM (inactive) | GI50 [3]: > 100 µM (inactive) | GI50 [9]: > 100 µM (inactive) | GI50 [4]: > 100 µM (inactive) | GI50 [5]: > 100 µM (inactive) | GI50 [6]: > 100 µM (inactive) | GI50 [7]: 86.7 µM (inactive)

COc1ccc(/C=C(\C#N)c2nc(-c3cc4ccccc4oc3=O)cs2)cc1
GI50 [1]: 52.5 µM (inactive)

O=C1CCCc2ccc3c(c21)CC1(Cc2ccccc2C1)C3
GI50 [1]: 44.2 µM (inactive)

c1cc2n(n1)CCN2
GI50 [3]: 4740 µM (inactive) | GI50 [8]: 431 µM (inactive) | GI50 [1]: 347 µM (inactive) | GI50 [4]: 6870 µM (inactive) | GI50 [5]: 4030 µM (inactive) | GI50 [6]: 2970 µM (inactive) | GI50 [7]: 1560 µM (inactive)

Cc1cccc(/C=N/NC(=S)N(C)CCc2ccccn2)n1
GI50 [1]: 0.123 µM (active)

CCOC(=O)NC(=O)c1cn(CCCOC(=O)CCCCCCCCC(=O)OCCCn2cc(C(=O)NC(=O)OCC)c(=O)[nH]c2=O)c(=O)[nH]c1=O
GI50 [2]: 28 µM (inactive) | GI50 [3]: 8 µM (inactive) | GI50 [8]: 20.7 µM (inactive) | GI50 [4]: 12.9 µM (inactive) | GI50 [5]: 29.1 µM (inactive) | GI50 [6]: 34.5 µM (inactive) | GI50 [7]: 6.65 µM (inactive)

Nc1ccc(C(=O)Nn2c(-c3ccccc3)nc3ccccc3c2=O)cc1
GI50 [1]: > 100 µM (inactive)

Cc1cc(C)c(C(=O)/C=C/c2ccccc2)c(C)c1
GI50 [2]: 31.6 µM (inactive) | GI50 [8]: 12.6 µM (inactive) | GI50 [4]: 28.5 µM (inactive) | GI50 [5]: > 100 µM (inactive) | GI50 [6]: 32.6 µM (inactive) | GI50 [7]: 24.1 µM (inactive)

N#Cc1nn(-c2ccc(Cl)cc2)c(=N)c2c(N)n3nc(-c4ccccc4)cc3nc12
GI50 [2]: 0.705 µM (active) | GI50 [3]: 1 µM (active) | GI50 [8]: 41.4 µM (inactive) | GI50 [5]: < 0.01 µM (active) | GI50 [6]: 1 µM (active)

CCC(=O)OC1CCn2c1nc1c2C(=O)C(C)=C(NC(C)=O)C1=O (configuration not stated)
GI50 [2]: 1.41 µM (inactive) | GI50 [3]: 1.79 µM (inactive) | GI50 [4]: 1.76 µM (inactive) | GI50 [7]: 0.425 µM (active)

Cc1ccc([N+](=O)[O-])cc1S(=O)(=O)Nc1ccc(C(=O)/C=C/c2ccccc2)cc1
GI50 [1]: 16.3 µM (inactive)

O=C(OC(=C(c1ccccc1)c1ccccc1)N1CCCC1=S)C(c1ccccc1)c1ccccc1
GI50 [1]: 3.58 µM (inactive)

Clc1ccc(C2=C(c3ccccc3)C(c3ccc(Cl)cc3)N3C(=N[C@H]4CCCC[C@@H]43)N2)cc1 (some centres not stated)
GI50 [1]: 15.6 µM (inactive)

CC1(C)Oc2ccccc2OC1O (configuration not stated)
GI50 [1]: > 100 µM (inactive)

CN(C(=O)Cc1cc(Cl)c(Cl)cc1NC(=O)CCCN)[C@H]1CCCC[C@@H]1N1CCCC1
GI50 [1]: 29.8 µM (inactive)

CC1=C(O)C(=O)C=C2C1=CC=C1[C@@]2(C)CC[C@@]2(C)C3C[C@@H](C)C(=O)[C@@H](O)[C@]3(C)CC[C@]12C (some centres not stated)
GI50 [1]: 1.64 µM (inactive)

O=C(NCCOC(=O)CCCCCCCCC(=O)OCCNC(=O)NC(=O)c1cn(Cc2ccccc2)c(=O)[nH]c1=O)NC(=O)c1cn(Cc2ccccc2)c(=O)[nH]c1=O
GI50 [2]: > 100 µM (inactive) | GI50 [3]: > 100 µM (inactive) | GI50 [8]: > 100 µM (inactive) | GI50 [4]: > 100 µM (inactive) | GI50 [6]: > 100 µM (inactive) | GI50 [7]: > 100 µM (inactive)

Cc1ccc(C(=O)Cn2c(C(=O)/C=C/c3cccs3)nc3ccccc32)cc1
GI50 [1]: > 100 µM (inactive)

COc1cc(C2C(C#N)=C(N)OC3=C2CCS(=O)(=O)c2ccc(C)cc23)cc(OC)c1OC (configuration not stated)
GI50 [1]: > 100 µM (inactive)

CCCCCCCCCCCCCCCCCCNC(=S)N/C=C1/C(=O)C=C(C)OC1=O
GI50 [1]: 31 µM (inactive)

COC(=O)c1c(O)ccc2c1c1c(n2Cc2ccccn2)C(=O)c2ccccc2C1=O
GI50 [1]: 32 µM (inactive)

O=C(NO)c1cccc(OCc2ccc(Br)cc2)c1
GI50 [1]: 3.06 µM (inactive)

CC(Br)C(=O)NC(CO)C(=O)O (configuration not stated)
GI50 [1]: > 100 µM (inactive)

Nc1nc2cc(Cl)ccc2n1N
GI50 [1]: > 100 µM (inactive)
